According to patent publication US20040018500A1, “Methods and systems for analyzing complex biological systems” (priority 2001, published 2004):

Tests used:
[1] = tested on: Saccharomyces cerevisiae wild type strain BY4743; experiment: AF1 gene expression analysis (microarray) of yeast treated with antifungal drugs; format: cell-based; conditions: p < 0.05; KEGG pathway mapping
Experimental: Saccharomyces cerevisiae wild type strain BY4743 was purchased from American Type Culture Center (ATCC, Manassas, Va.). The yeast strain was grown in YPD or SD media. […] The cultures started from fresh single colonies were grown in 1.0 ml YPD overnight at 30° C. […] The OD600 was adjusted to 1.0 with YPD media, then 2.0 ml of each was inoculated into three 250 ml flasks, each containing 50 ml of SD media. […] The cells were kept growing for another two hours, then collected by centrifugation at 4000 rpm for 5 minutes at 4° C. Pellets were washed once with ice-cold water, then were lyophilized overnight at 4° C. […] RNA quality was determined using the Bioanalyzer 2100 and the RNA 6000 assay (Agilent Technologies, Palo Alto, Calif.) according to manufacturer's instructions. RNA concentrations were determined spectrophotometrically by measuring the absorption at 260 nm in an Ultrospec 2000 (Pharmacia Biotech, Piscataway, N.J.). […] Labeled cRNAs were evaluated using the RNA 6000 assay on the Agilent Bioanalyzer 2100. Labeled cRNA concentrations were determined spectrophotometrically by measuring the absorption at 260 nm in an Ultrospec 2000 (Pharmacia Biotech, Piscataway, N.J.). […] Each feature was determined from an array's associated pattern file and a detection algorithm. […] Data was evaluated after combining results from fluor reversal replicate hybridizations. […]

[2] = tested on: Saccharomyces cerevisiae wild type strain BY4743; experiment: AF1 combined gene expression and metabolite data mapped to KEGG reactions and pathways; format: cell-based
From the text: In AF1, two different technologies were utilized: gene expression analysis (for examination of mRNA expression) and metabolite analysis. […] As noted previously, existing metabolic databases may be helpful in practicing the methods and systems of the present invention, but many databases include limitations that make their use in data analysis and pathway mapping less than straightforward. […] This caveat to KEGG makes it difficult to pinpoint the correct pathway when attempting to link a gene to a specific pathway. […] The pathway score indicates how meaningful the mapping is, or how likely it is to be correctly indicative of the pathway involved in the perturbation under examination. The method provides a pathway score based on perturbation levels of genes and/or compounds and the information content of each gene and/or compound in the pathway, i.e., a pathway score indicates the extent to which other pathways are mapped to a gene/compound. For example, imagine that two genes are perturbed in a particular experiment. One gene maps to only one pathway, giving a high degree of probability that the perturbed pathway is the one identified in the mapping. The second gene maps to three pathways. In the later example, there is only one-third the probability that the pathway identified in the mapping is the one perturbed. The present invention provides a method for calculating the pathway scores, so that more weight is given to a score of a gene or compound that maps to only one pathway than to a score of a gene or compound that maps to multiple pathways. […] Where n=the total number of genes in the pathway; ipath—count=the number of pathways containing a gene; and j=the number of genes in the pathway that are perturbed. Another factor to be considered when weighting a pathway score is the degree of perturbation. Degree of perturbation can be calculated, for example, based on a number of standard deviations from a norm, and included in an equation such as the one shown above, so that not only the number of pathways is taken into account, but also accounts for the amount of gene transcript or compound present as compared to a control. Compounds were also linked to pathways using the KEGG database. […] Of the 676 compounds under consideration, 77 were detected in the AF1 samples. […] The multiple mapping feature of KEGG makes it difficult to pinpoint the correct pathway when trying to link a compound to a specific pathway. […] A pathway score calculation is applied to the compounds to account for both information content (number of pathways a compound maps to) and perturbation level. The data were then combined to determine the number of reactions showing an enzyme and at least one compound perturbed, and to determine the number of pathways having at least one enzyme and one perturbed compound perturbed. The results of the analysis are represented in Tables 16 and 17, and were difficult to interpret, illustrating that the ability to draw conclusions from compound mapping to pathways is limited when absent additional data.

SMILES: C[C@@H]1[C@H](O)[C@@H](C)/C=C/C=C/C=C/C=C/C=C/C=C/C=C/[C@H](O[C@@H]2O[C@H](C)[C@@H](O)[C@H](N)[C@@H]2O)C[C@@H]2O[C@](O)(C[C@@H](O)C[C@@H](O)[C@H](O)CC[C@@H](O)C[C@@H](O)CC(=O)O[C@H]1C)C[C@H](O)[C@H]2C(=O)O [Amphoteracin B]
- # Pathways Affected by at Least One Gene [1]: 97
- Number Of Pathways Having at Least One Enzyme and One Compound Perturbed (# Reactions) [2]: 37
- Number of Reactions Having an Enzyme and at Least One Compound Perturbed [2]: 54
